Experimental data published in patent publication US11124486B2, “6-membered heterocyclic derivatives and pharmaceutical composition comprising the same” (Shionogi & Co., Ltd., priority 2015, dated 2021).
Read-outs that look alike come from different tables or passages of the source.

Biological target: human P2X7 receptor (Homo sapiens, UniProt Q99572, R270H/Y155H)
Test: Evaluation of a human P2X7 receptor inhibitory activity (Yo-Pro uptake, BzATP stimulation, FLIPR TETRA)
Format: cell-based
Method: Test Example 1 Evaluation of a Human P2X7 Receptor Inhibitory Activity
Stably expressing cell line (1321N1 cell transfected with the human P2X7 receptor gene (GenBank accession number NM_002502.5 including T606C and G952A SNP)) was used. The cells were seeded in a 384-well microtiter plate at a concentration of 8000 cells/well and cultured in the medium (10% fetal bovine serum, 25 mM HEPES, 1% penicillin and streptomycin in DMEM) for one day at 37° C. under 5% carbon dioxide atmosphere. After replacing with 20 μL of the HBSS buffer (20 mM HEPES, 55.6 mM D-glucose, 1×HBSS(−), pH7.4-7.5). 16 μL of 17.3 μM Yo-Pro solution in the HBSS buffer was added. The plate was placed in high-throughput cellular screening system FLIPR TETRA (Molecullar Devices, LLC.) and 15 μL of 130 μM BzATP solution in the HBSS buffer was added. Measurement, of fluorescence intensity by FLIPR TETRA was started. After eight minutes, 15 μL of DMSO solutions containing different concentrations of the compound of the present invention as prepared by dilution with the HBSS buffer were dispensed to each well through the built-in automatic dispenser, and the measurement of fluorescence intensity was continued for 20 minutes. […] Changing values of fluorescence intensity by the compound of the present invention were calculated by difference between maximum and minimum fluorescence intensity for 20 minutes. Inhibition ratios (%) were calculated from the following equation:
[formula] IC50 was calculated using Logistic approximation.

[1] = 1321N1 cells expressing human P2X7 receptor, BzATP stimulation, Yo-Pro uptake, read-out: IC50 (antagonistic activity for the human P2X7 receptor), class
[2] = antagonistic activity for the human P2X7 receptor, 1321N1 cells expressing human P2X7, BzATP-stimulated Yo-Pro uptake, read-out: IC50
[3] = 1321N1 cells expressing human P2X7 receptor, BzATP stimulation, Yo-Pro uptake, read-out: IC50 (antagonistic activity for the human P2X7 receptor)

| SMILES | IC50 [1] [nM] | other results |
| --- | --- | --- |
| COc1cccc(Nc2nc(=O)c(OC)cn2Cc2cccc(Cl)c2)c1C [Compound I-0476] | < 10 | – |
| COc1cn(Cc2ccccc2)c(Nc2cc(S(C)(=O)=O)c(C)cc2C)nc1=O [Compound I-0448] | 10 to 100 | – |
| COc1cn(Cc2cc(F)cc(Cl)c2)c(Nc2cc(OCC(F)(F)F)ccc2C)nc1=O [Compound I-0498] | 100 to 500 | – |
| CCOc1ccc(C)c(Nc2nc(=O)c(OC)cn2Cc2ccc(F)c(F)c2)c1 [Compound I-0457] | < 10 | – |
| Cc1cc(F)c(-c2cccn(C)c2=O)cc1Nc1nc(=O)c(F)cn1Cc1cc(F)c(F)c(F)c1 [Compound I-1222] | – | IC50 [2]: < 10 nM |
| COc1cc(C)c(Nc2nc(=O)c(OC)cn2Cc2cccc(F)c2)cc1C [Compound I-0249] | < 10 | – |
| CCc1ccc(F)cc1Nc1nc(=O)c(OC)cn1Cc1ccccc1 [Compound I-0450] | 10 to 100 | – |
| COC1CN(Cc2ccc(F)c(F)c2)C(Nc2cc(S(C)(=O)=O)c(C)cc2C)=NC1=O (stereo not drawn) [Compound I-0605] | – | IC50 [2]: 10 to 100 nM |
| COc1cn(Cc2ccccc2)c(Nc2ccc(C)cc2F)nc1=O [Compound I-0762] | – | IC50 [2]: 100 to 500 nM |
| COc1cc(C)c(Nc2nc(=O)cc(C)n2Cc2cc(F)c(F)c(F)c2)cc1OC [Compound I-1153] | – | IC50 [2]: < 10 nM |
| COc1cn(Cc2cccc(OC(F)F)c2)c(Nc2cccc(Cl)c2C)nc1=O [Compound I-0422] | 500 to 1000 | – |
| CCc1cc(OC)ccc1Nc1nc(=O)c(OC)cn1Cc1cc(F)cc(Cl)c1 [Compound I-0447] | < 10 | – |
| COc1cn(Cc2cc(F)c(F)c(F)c2)c(Cc2cccc3[nH]c(=O)ccc23)nc1=O [Compound I-0602] | – | IC50 [2]: 100 to 500 nM |
| COc1cn(Cc2ccccc2)c(Nc2cccc(C)c2Cl)nc1=O [Compound I-0112] | 10 to 100 | – |
| COc1cn(Cc2ccc(F)c(F)c2)c(Nc2ccc(C)cc2C)nc1=O [Compound I-0461] | < 10 | – |
| COc1cc(C)c(Nc2nc(=O)c(OC)cn2Cc2ccc(F)c(Cl)c2)cc1Cl [Compound I-0465] | < 10 | – |
| COc1cn(Cc2cccc(Cl)c2)c(Nc2cccc(C(F)(F)F)c2C)nc1=O [Compound I-0466] | 10 to 100 | – |
| COc1cc(C)c(Nc2nc(=O)c(OC)cn2Cc2ccccc2)cc1Cl [Compound I-0464] | < 10 | – |

| SMILES | IC50 [1] [nM] | other results |
| --- | --- | --- |
| COc1cn(Cc2cc(F)cc(F)c2)c(Nc2ccc(C)cc2C)nc1=O [Compound I-0463] | < 10 | – |
| Cc1c(Cl)cccc1Nc1nc(=O)c(OOC(C)(C)C)cn1Cc1ccccc1 [Compound I-0111] | 100 to 500 | – |
| COc1cn(Cc2ccccc2)c(Oc2cc(C)c(C)cc2C)nc1=O [Compound I-0357] | 500 to 1000 | – |
| CCOc1ccc(C)c(Nc2nc(=O)c(OC)cn2Cc2cc(F)cc(Cl)c2)c1 [Compound I-0460] | 10 to 100 | – |
| COc1cn(Cc2cc(F)cc(F)c2)c(NCc2cccc(Cl)c2C)nc1=O [Compound I-0452] | – | IC50 [3]: 110 nM |
| COc1cccc(Nc2nc(=O)c(OC)cn2Cc2ccc(F)c(Cl)c2)c1C [Compound I-0478] | < 10 | – |
| COc1cc(Nc2nc(=O)c(OC)cn2Cc2ccc(F)cc2)c(C)cc1Cl [Compound I-0475] | < 10 | – |
| COc1cn(Cc2ccc(F)c(Cl)c2)c(Nc2cc(S(C)(=O)=O)c(C)cc2C)nc1=O [Compound I-0449] | < 10 | – |
| CCOc1ccc(C)c(Nc2nc(=O)c(OC)cn2Cc2cc(F)cc(F)c2)c1 [Compound I-0458] | 10 to 100 | – |
| COc1ccc(NC2=NC(=O)CC(C)N2Cc2cc(F)c(F)c(F)c2)c(C)c1 (stereo not drawn) [Compound I-1167] | – | IC50 [2]: < 10 nM |
| COc1cn(Cc2ccc(F)c(Cl)c2)c(Nc2c(C)cc3c(c2C)COC3)nc1=O [Compound I-0907] | – | IC50 [2]: < 10 nM |
| COc1cn(Cc2ccc(F)c(Cl)c2)c(Oc2cc(C)c(C)cc2C)nc1=O [Compound I-0358] | – | IC50 [3]: 160 nM |
| CCOc1ccc(C)c(Nc2nc(=O)c(OC)cn2Cc2ccc(F)c(Cl)c2)c1 [Compound I-0459] | < 10 | – |
| COc1cccc(Nc2nc(=O)c(OC)cn2Cc2ccc(F)c(F)c2)c1C [Compound I-0477] | < 10 | – |
| COc1cn(Cc2ccc(F)c(Cl)c2)c(Nc2cc3sc(C)nc3cc2C)cc1=O [Compound I-0033] | – | IC50 [3]: 49 nM |
| COc1cc(C)c(Nc2nc(=O)c(OC)cn2Cc2cc(F)cc(Cl)c2)cc1C [Compound I-0446] | < 10 | – |
| COc1cn(Cc2cc(F)cc(Cl)c2)c(Nc2ccc(C)cc2C)nc1=O [Compound I-0462] | 10 to 100 | – |
| COc1cc(Nc2nc(=O)c(OC)cn2Cc2cccc(F)c2)c(C)cc1Cl [Compound I-0474] | < 10 | – |
